{"source": "patent US11453640B2", "about": "“Small molecules for disrupting the super elongation complex and inhibiting transcription elongation for cancer therapy” (NORTHWESTERN UNIVERSITY, priority 2018, dated 2022)", "test_system": "MDA231-LM2 tumor", "assay": "MDA231-LM2 tumor model in athymic nude mice", "format": "in vivo", "conditions": "50 mg/kg once daily, 15 intraperitoneal injections", "protocol": "FIG. 7. SEC disruptors delay tumor progression and improve survival of MDA231-LM2 tumor mice. (A) Schematic of the development of MDA231-LM2 tumors in athymic nude mice (Wang et al., 2017). 4×10^6 MDA231-LM2 cells were inoculated into the fat pads of nude mice. 17 days after injection, when the tumor reached 100 mm^3, mice were divided randomly into three groups. Drug treatments were performed with once daily with 50 mg/kg KL-1, 10 mg/kg KL-2 or PBS (vehicle) for a total of 15 intraperitoneal injections. (B-C) KL-1 and KL-2 delay the tumor growth in the MDA231-LM2 tumor mouse model. The average tumor sizes of the vehicle (n=6), KL-1 (n=7), and KL-2 (n=5) treated groups were plotted from day 5 to day 36 after inoculation (B). Representative tumors sizes are shown (C). […] A 2-way unpaired student's t-test was used for statistical analysis. (E) Kaplan-Meier survival curves of vehicle, KL-1, and KL-2 treated nude mice transplanted with 4×10^6MDA231-LM2 cells. 17 days after inoculation, vehicle (n=6), KL-1 (n=7), and KL-2 (n=5) were administered daily for 15 intraperitoneal injections. Mice were euthanized when the tumor size reached 1000 mm^3. Thep values were calculated using the log-rank test.\nMDA231-LM2 Tumor Model. […] The tumor sizes were measured twice a week and the mice were euthanized when the tumor size reached 1000 mm^3."}
{"molecule": "COc1cccc(C(=O)CC(=O)C(=O)Nc2cc(Cl)ccc2C)c1", "note": "[KL-1, N-(5-chloro-2-methylphenyl)-4-oxo-4-(3-methoxyphenyl)-2-oxobutanamide]", "values": [{"measurement": "survival of the recipient mice", "value": "significantly extended survival"}, {"measurement": "tumor progression (tumor sizes)", "value": "delayed tumor progression"}]}
